Assay results published in ChEMBL document CHEMBL4418482, “2-hydroxyarylamide derivative or pharmaceutically acceptable salt thereof, preparation method thereof, and pharmaceutical composition for preventing or treating cancer containing same as active ingredient” (2014).
Active and inactive are the calls of the source. The rule behind the calls is not given here.

How the values were obtained:
[1] = molecular target: Transmembrane protease serine 4 (Homo sapiens) (UniProt Q9NRS4); experiment: Inhibition of TMPRSS4 serine protease domain (Val205 to Leu437 residues) (unknown origin) expressed in Escherichia coli BL21 (DE3) at 1 mM using Boc-Gln-Ala-Arg-7-amido-4-methylcoumarin hydrochloride substrate measured at 5 mins intervals
Transmembrane protease serine 4 (Homo sapiens), sequence (Q9NRS4 whole entry, the tested form may be a part): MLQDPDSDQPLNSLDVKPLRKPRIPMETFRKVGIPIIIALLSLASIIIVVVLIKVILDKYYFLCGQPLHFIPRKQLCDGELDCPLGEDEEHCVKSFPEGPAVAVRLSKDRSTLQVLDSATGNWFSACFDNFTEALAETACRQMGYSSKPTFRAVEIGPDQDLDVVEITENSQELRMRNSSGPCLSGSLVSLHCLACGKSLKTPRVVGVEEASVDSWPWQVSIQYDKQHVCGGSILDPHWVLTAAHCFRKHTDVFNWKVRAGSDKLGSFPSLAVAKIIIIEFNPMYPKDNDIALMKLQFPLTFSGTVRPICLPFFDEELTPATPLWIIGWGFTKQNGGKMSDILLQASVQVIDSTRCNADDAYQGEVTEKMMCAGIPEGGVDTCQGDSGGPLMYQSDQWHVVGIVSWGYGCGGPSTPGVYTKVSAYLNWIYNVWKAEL

[2] = molecular target: Transmembrane protease serine 4 (Homo sapiens) (UniProt Q9NRS4); experiment: Inhibition of TMPRSS4 serine protease domain (Val205 to Leu437 residues) (unknown origin) expressed in Escherichia coli BL21 (DE3) at 30 uM using Z-Phe-Arg7-amido-4-methylcoumarin hydrochloride substrate measured at 5 mins interval for 150 mins by fluorescence based assay relative to control
[3] = molecular target: Transmembrane protease serine 4 (Homo sapiens) (UniProt Q9NRS4); experiment: Inhibition of TMPRSS4 serine protease domain (Val205 to Leu437 residues) (unknown origin) expressed in Escherichia coli BL21 (DE3) at 10 uM using Z-Phe-Arg7-amido-4-methylcoumarin hydrochloride substrate measured at 5 mins interval for 150 mins by fluorescence based assay relative to control
[4] = molecular target: Transmembrane protease serine 4 (Homo sapiens) (UniProt Q9NRS4); experiment: Inhibition of TMPRSS4 serine protease domain (Val205 to Leu437 residues) (unknown origin) expressed in Escherichia coli BL21 (DE3) at 100 uM using Z-Phe-Arg7-amido-4-methylcoumarin hydrochloride substrate measured at 5 mins interval for 150 mins by fluorescence based assay relative to control

inhibition [2] [%]	inhibition [3] [%]	inhibition [4] [%]	Structure (SMILES)	inhibition [1]
–	–	–	NCCc1ccc(S(=O)(=O)F)cc1	Active
77	–	–	Cc1c(NC(=O)c2cc(Cl)ccc2O)cccc1C(F)(F)F	–
46	30	98	O=C(Nc1ccc(C(F)(F)F)c(Br)c1)c1cc(Cl)ccc1O	–
31	5	–	O=C(Nc1cc(C(F)(F)F)cc(C(F)(F)F)c1Cl)c1cc(-c2ccc(F)cc2F)ccc1O	–
